The values below are quoted from earlier work in US6689595B1, “Crystallization and structure determination of Staphylococcus aureus thymidylate kinase” (Pharmacia & Upjohn Company, priority 1999, dated 2004).

Molecules are shown by their SMILES.

The data set concerns the target E. coli TMK (Escherichia coli, UniProt P0A720). The note with it: from A. Lavie et al. 1998.

Sequence of E. coli TMK (P0A720 whole entry): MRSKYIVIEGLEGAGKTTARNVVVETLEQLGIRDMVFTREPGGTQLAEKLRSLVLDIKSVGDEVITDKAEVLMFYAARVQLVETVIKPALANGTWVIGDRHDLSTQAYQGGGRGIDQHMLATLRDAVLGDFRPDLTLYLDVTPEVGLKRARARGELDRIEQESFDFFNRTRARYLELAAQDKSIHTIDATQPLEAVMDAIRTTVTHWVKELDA

For the molecule `Cc1cn([C@H]2C[C@H](O)[C@@H](COP(=O)(O)OP(=O)(O)OP(=O)(O)OP(=O)(O)OP(=O)(O)OC[C@H]3O[C@@H](n4cnc5c(N)ncnc54)[C@H](O)[C@@H]3O)O2)c(=O)[nH]c1=O` [AP5T], the Kd is 20 nM.
